Results: ChEMBL document CHEMBL4052645, “Discovery of potent and efficacious pyrrolopyridazines as dual JAK1/3 inhibitors” (Bioorg Med Chem Lett, 2017)

Experiments:
[1] = molecular target: Tyrosine-protein kinase JAK2 (Homo sapiens, UniProt O60674); test: Inhibition of GST-tagged JAK2 (unknown origin) after 3 hrs by Caliper assay
[2] = molecular target: NUAK family SNF1-like kinase 1 (Homo sapiens) (UniProt O60285); test: Inhibition of human NUAK1 (25 to I332 residues) expressed in bacterial expression system assessed as residual activity at 50 nM by KINOMEscan assay relative to control
[3] = molecular target: Tyrosine-protein kinase JAK1 (Homo sapiens, UniProt P23458); test: Inhibition of human JAK1 (V856 to K1154 residues) expressed in bacterial expression system assessed as residual activity at 50 nM by KINOMEscan assay relative to control
[4] = molecular target: Serine/threonine-protein kinase ULK1 (Homo sapiens) (UniProt O75385); test: Inhibition of human ULK1 (M1 to T309 residues) expressed in mammalian expression system assessed as residual activity at 50 nM by KINOMEscan assay relative to control
[5] = molecular target: 5'-AMP-activated protein kinase catalytic subunit alpha-1 (Homo sapiens) (UniProt Q13131); test: Inhibition of wild-type human partial length AMPK alpha1 (M1 to E306 residues) expressed in bacterial expression system assessed as residual activity at 50 nM by Kinomescan method relative to control
[6] = molecular target: Serine/threonine-protein kinase DCLK3 (Homo sapiens) (UniProt Q9C098); test: Inhibition of wild-type human partial length DCAMKL3 (E140 to V628 residues) expressed in bacterial expression system assessed as residual activity at 50 nM by Kinomescan method relative to control
[7] = molecular target: Ephrin type-A receptor 3 (Homo sapiens) (UniProt P29320); test: Inhibition of wild-type human partial length EPHA3 (D604 to K889 residues) expressed in bacterial expression system assessed as residual activity at 50 nM by Kinomescan method relative to control
[8] = molecular target: Receptor tyrosine-protein kinase erbB-2 (Homo sapiens) (UniProt P04626); test: Inhibition of wild-type human partial length ERBB2 (K646 to V1225 residues) expressed in mammalian expression system assessed as residual activity at 50 nM by Kinomescan method relative to control
[9] = molecular target: Ephrin type-A receptor 1 (Homo sapiens) (UniProt P21709); test: Inhibition of wild-type human partial length EPHA1 (V588 to I913 residues) expressed in bacterial expression system assessed as residual activity at 50 nM by Kinomescan method relative to control
Homo sapiens = species: Homo sapiens; test: Inhibition of human partial length FLT3 ITD mutant expressed in bacterial expression system assessed as residual activity at 50 nM by Kinomescan method relative to control
[10] = molecular target: Serine/threonine-protein kinase B-raf (Homo sapiens) (UniProt P15056); test: Inhibition of wild-type human partial length BRAF (S429 to E741 residues) expressed in mammalian expression system assessed as residual activity at 50 nM by Kinomescan method relative to control
[11] = molecular target: Interleukin-1 receptor-associated kinase 1 (Homo sapiens) (UniProt P51617); test: Inhibition of wild-type human partial length IRAK1 (R194 to S712 residues) expressed in mammalian expression system assessed as residual activity at 50 nM by Kinomescan method relative to control
[12] = molecular target: Serine/threonine-protein kinase PRP4 homolog (Homo sapiens) (UniProt Q13523); test: Inhibition of wild-type human partial length PRP4 (D657 to I1007 residues) expressed in bacterial expression system assessed as residual activity at 50 nM by Kinomescan method relative to control
[13] = molecular target: Peripheral plasma membrane protein CASK (Homo sapiens) (UniProt O14936); test: Inhibition of wild-type human partial length CASK (M1 to H315 residues) expressed in mammalian expression system assessed as residual activity at 50 nM by Kinomescan method relative to control
[14] = molecular target: Tyrosine-protein kinase Blk (Homo sapiens) (UniProt P51451); test: Inhibition of wild-type human partial length BLK (G211 to L503 residues) expressed in bacterial expression system assessed as residual activity at 50 nM by Kinomescan method relative to control
[15] = molecular target: Bone morphogenetic protein receptor type-1A (Homo sapiens) (UniProt P36894); test: Inhibition of wild-type human partial length BMPR1A (Q214 to I532 residues) expressed in bacterial expression system assessed as residual activity at 50 nM by Kinomescan method relative to control
[16] = molecular target: CDK4/Cyclin D3 (Homo sapiens) (UniProt P11802+P30281); test: Inhibition of wild-type human full length CDK4/cyclinD3 (M1 to E303 residues) expressed in mammalian expression system assessed as residual activity at 50 nM by Kinomescan method relative to control
[17] = molecular target: Interleukin-1 receptor-associated kinase 4 (Homo sapiens) (UniProt Q9NWZ3); test: Inhibition of wild-type human partial length IRAK4 (M1 to S460 residues) expressed in mammalian expression system assessed as residual activity at 50 nM by Kinomescan method relative to control
[18] = molecular target: Tyrosine-protein kinase Mer (Homo sapiens) (UniProt Q12866); test: Inhibition of wild-type human partial length MER (R557 to L884 residues) expressed in bacterial expression system assessed as residual activity at 50 nM by Kinomescan method relative to control
[19] = molecular target: Ribosomal protein S6 kinase alpha-4 (Homo sapiens) (UniProt O75676); test: Inhibition of wild-type human partial length N-terminal MSK2 kinase domain 1 expressed in bacterial expression system assessed as residual activity at 50 nM by Kinomescan method relative to control
[20] = molecular target: Serine/threonine-protein kinase OSR1 (Homo sapiens) (UniProt O95747); test: Inhibition of wild-type human full length OSR1 (M1 to S527 residues) expressed in mammalian expression system assessed as residual activity at 50 nM by Kinomescan method relative to control
[21] = molecular target: Mitogen-activated protein kinase 13 (Homo sapiens) (UniProt O15264); test: Inhibition of wild-type human full length p38-delta (M1 to L365 residues) expressed in bacterial expression system assessed as residual activity at 50 nM by Kinomescan method relative to control
[22] = molecular target: cAMP-dependent protein kinase catalytic subunit alpha (Homo sapiens) (UniProt P17612); test: Inhibition of wild-type human partial length PKACA (G10 to F351 residues) expressed in bacterial expression system assessed as residual activity at 50 nM by Kinomescan method relative to control
[23] = molecular target: cGMP-dependent protein kinase 1 (Homo sapiens) (UniProt Q13976); test: Inhibition of wild-type human partial length PKG1 (L339 to F686 residues) expressed in bacterial expression system assessed as residual activity at 50 nM by Kinomescan method relative to control
[24] = molecular target: Proto-oncogene tyrosine-protein kinase ROS (Homo sapiens) (UniProt P08922); test: Inhibition of wild-type human partial length ROS (A1921 to N2240 residues) expressed in bacterial expression system assessed as residual activity at 50 nM by Kinomescan method relative to control
[25] = molecular target: Testis-specific serine/threonine-protein kinase 1 (Homo sapiens) (UniProt Q9BXA7); test: Inhibition of wild-type human full length TSSK1B (M1 to Q367 residues) expressed in bacterial expression system assessed as residual activity at 50 nM by Kinomescan method relative to control
Sequence of Testis-specific serine/threonine-protein kinase 1 (Homo sapiens) (Q9BXA7 whole entry, the tested form may be a part): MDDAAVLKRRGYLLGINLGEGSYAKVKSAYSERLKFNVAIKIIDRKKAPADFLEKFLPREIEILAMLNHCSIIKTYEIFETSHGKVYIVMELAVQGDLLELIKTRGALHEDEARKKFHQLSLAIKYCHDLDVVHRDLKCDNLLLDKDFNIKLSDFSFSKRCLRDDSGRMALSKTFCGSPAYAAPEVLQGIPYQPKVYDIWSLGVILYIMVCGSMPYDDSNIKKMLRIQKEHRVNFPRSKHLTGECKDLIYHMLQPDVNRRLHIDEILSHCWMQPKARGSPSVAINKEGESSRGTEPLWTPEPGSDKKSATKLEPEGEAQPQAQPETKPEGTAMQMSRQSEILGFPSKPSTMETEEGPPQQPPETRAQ

Sequence of Proto-oncogene tyrosine-protein kinase ROS (Homo sapiens) (P08922 whole entry, the tested form may be a part): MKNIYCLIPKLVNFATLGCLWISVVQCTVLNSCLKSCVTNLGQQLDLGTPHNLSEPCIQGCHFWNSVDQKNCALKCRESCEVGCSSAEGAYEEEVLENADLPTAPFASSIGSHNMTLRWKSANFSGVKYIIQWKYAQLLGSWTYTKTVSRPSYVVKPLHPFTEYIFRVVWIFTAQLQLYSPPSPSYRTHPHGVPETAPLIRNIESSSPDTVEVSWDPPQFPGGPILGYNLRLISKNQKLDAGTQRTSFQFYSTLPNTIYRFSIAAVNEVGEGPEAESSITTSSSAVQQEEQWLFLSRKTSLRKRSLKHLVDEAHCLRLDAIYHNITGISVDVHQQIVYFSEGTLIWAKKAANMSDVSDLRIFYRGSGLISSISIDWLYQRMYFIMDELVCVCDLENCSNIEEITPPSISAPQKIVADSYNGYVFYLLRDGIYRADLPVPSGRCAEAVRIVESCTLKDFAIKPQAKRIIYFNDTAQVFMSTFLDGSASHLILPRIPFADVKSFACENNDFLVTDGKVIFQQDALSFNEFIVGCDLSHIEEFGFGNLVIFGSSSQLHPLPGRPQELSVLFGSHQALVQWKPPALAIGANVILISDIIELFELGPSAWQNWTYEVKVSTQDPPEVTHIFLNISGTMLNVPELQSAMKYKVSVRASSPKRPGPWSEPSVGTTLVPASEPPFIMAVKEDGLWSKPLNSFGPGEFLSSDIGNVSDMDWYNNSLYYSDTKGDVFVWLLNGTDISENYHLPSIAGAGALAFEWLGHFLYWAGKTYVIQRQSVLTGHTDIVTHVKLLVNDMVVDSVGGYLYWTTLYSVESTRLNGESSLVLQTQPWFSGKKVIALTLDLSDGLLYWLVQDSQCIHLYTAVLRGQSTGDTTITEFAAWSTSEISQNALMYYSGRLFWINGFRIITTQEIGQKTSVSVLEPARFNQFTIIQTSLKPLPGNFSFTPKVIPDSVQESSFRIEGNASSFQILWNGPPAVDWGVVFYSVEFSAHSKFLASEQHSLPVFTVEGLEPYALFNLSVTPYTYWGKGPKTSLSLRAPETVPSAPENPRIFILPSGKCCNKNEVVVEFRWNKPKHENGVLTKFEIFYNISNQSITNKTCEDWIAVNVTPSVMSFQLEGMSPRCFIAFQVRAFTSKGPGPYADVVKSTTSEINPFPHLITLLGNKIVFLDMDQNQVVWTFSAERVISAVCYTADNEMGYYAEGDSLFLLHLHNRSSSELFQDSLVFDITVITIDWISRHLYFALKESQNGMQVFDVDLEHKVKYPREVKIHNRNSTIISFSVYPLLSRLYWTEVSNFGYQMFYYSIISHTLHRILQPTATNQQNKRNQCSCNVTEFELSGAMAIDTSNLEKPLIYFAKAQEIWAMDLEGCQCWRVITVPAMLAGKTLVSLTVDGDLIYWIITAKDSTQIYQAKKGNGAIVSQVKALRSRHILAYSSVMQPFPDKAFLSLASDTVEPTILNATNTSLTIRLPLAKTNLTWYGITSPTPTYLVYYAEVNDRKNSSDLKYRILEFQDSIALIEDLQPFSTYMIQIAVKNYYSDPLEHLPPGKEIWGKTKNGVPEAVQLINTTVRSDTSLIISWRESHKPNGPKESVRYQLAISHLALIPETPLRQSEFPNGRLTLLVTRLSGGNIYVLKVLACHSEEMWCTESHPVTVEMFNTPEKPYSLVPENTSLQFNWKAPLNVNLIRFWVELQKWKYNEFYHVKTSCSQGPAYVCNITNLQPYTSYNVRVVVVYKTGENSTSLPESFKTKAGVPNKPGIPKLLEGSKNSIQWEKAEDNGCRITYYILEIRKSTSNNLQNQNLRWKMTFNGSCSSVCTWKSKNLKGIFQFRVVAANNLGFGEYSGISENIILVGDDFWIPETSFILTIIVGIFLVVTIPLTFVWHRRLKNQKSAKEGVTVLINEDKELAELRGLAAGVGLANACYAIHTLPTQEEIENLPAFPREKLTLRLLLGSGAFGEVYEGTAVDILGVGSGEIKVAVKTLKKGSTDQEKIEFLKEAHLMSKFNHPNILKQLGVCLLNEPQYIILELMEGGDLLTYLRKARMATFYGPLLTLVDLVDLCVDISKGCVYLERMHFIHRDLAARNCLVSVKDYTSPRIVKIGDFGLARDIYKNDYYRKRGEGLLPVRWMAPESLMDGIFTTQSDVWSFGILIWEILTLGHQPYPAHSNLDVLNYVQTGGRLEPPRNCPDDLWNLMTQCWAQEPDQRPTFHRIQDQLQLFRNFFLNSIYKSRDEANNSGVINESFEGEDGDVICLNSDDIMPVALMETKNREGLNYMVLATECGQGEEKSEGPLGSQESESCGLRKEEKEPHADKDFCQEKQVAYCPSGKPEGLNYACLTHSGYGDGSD
Sequence of Ribosomal protein S6 kinase alpha-4 (Homo sapiens) (O75676 whole entry, looked up, the tested form may be a part): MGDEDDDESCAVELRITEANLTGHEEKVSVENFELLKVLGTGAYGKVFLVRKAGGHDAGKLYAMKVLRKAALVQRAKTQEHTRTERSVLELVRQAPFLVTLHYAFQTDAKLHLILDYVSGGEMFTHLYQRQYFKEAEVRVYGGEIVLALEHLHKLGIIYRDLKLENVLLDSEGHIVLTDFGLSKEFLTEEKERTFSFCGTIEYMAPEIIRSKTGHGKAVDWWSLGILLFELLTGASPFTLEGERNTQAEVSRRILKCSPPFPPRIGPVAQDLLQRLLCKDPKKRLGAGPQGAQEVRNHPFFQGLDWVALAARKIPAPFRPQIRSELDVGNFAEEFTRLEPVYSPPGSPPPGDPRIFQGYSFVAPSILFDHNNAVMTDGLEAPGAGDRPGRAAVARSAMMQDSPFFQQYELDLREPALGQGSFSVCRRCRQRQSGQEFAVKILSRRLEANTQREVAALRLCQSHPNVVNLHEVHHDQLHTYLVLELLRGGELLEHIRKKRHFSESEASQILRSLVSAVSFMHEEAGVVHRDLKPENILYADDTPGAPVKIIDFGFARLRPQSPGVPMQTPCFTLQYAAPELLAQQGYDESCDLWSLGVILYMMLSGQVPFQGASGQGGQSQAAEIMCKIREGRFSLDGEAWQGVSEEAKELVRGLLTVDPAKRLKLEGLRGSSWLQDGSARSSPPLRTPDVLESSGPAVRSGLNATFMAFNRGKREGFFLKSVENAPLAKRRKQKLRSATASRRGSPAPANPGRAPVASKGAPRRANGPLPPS
Sequence of NUAK family SNF1-like kinase 1 (Homo sapiens) (O60285 whole entry, the tested form may be a part): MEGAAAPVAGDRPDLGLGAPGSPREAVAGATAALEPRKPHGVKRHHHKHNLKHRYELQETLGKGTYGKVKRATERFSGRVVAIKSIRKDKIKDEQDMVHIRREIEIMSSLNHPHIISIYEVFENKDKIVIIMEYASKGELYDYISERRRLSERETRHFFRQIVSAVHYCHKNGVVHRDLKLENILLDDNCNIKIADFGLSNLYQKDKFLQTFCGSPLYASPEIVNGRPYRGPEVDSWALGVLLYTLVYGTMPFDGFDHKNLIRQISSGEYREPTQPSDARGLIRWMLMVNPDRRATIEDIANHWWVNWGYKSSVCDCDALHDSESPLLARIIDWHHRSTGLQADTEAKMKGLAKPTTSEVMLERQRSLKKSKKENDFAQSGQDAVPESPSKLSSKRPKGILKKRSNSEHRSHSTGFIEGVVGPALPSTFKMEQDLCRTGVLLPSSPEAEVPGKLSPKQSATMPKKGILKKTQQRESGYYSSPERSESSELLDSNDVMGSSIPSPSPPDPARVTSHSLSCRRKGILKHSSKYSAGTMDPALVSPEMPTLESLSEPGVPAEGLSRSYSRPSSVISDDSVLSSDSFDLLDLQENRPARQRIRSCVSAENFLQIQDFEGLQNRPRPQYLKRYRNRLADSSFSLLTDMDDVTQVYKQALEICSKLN
Sequence of Peripheral plasma membrane protein CASK (Homo sapiens) (O14936 whole entry, the tested form may be a part): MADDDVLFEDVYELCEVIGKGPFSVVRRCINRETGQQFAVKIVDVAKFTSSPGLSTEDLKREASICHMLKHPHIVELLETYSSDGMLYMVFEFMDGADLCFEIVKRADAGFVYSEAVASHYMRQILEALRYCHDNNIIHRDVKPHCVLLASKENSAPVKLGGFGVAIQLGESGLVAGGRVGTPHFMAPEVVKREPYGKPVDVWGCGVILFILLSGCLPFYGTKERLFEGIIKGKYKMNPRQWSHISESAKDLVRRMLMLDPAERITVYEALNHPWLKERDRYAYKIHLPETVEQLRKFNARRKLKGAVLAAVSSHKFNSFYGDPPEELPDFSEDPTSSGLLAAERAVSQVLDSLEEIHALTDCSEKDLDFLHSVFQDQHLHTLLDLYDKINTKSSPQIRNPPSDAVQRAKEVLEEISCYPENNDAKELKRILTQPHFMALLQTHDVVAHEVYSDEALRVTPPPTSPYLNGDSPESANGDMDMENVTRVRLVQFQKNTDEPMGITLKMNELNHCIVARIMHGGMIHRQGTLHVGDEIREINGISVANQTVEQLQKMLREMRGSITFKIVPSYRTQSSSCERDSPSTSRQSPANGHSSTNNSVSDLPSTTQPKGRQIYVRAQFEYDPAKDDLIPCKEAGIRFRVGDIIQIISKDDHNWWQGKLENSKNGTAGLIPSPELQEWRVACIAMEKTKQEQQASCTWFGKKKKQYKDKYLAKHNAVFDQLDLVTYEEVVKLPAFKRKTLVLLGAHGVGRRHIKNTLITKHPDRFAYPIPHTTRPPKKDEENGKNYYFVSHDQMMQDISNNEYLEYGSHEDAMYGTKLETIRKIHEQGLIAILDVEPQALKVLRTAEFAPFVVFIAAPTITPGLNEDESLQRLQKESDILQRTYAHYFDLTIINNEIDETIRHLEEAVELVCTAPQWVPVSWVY

SMILES | IC50 [1] [nM] | Activity [2] [%] | Activity [3] [%] | Activity [4] [%] | Activity [5] [%] | Activity [6] [%] | Activity [7] [%] | Activity [8] [%] | Activity [9] [%] | Activity (Homo sapiens) [%] | Activity [10] [%] | Activity [11] [%] | Activity [12] [%] | Activity [13] [%] | Activity [14] [%] | Activity [15] [%] | Activity [16] [%] | Activity [17] [%] | Activity [18] [%] | Activity [19] [%] | other results
COc1ccc(-c2cc3c(N[C@@H]4CC[C@](C)(N)C4(C)C)c(C(N)=O)cnn3c2)cn1 | 15 | 6 | 9 | 61 | 62 | 64 | 88 | 99 | 93 | 79 | 100 | 100 | 97 | 95 | 95 | 100 | 80 | 100 | 100 | 100 | Activity [20]: 100%; Activity [21]: 100%; Activity [22]: 100%; Activity [23]: 100%; Activity [24]: 100%; Activity [25]: 100%
CC1(C)[C@H](Nc2c(C(N)=O)cnn3cc(-c4ccccc4)cc23)CC[C@]1(C)N | 9 | 2 | 1.4 | 27 | 37 | 39 | 65 | 76 | 80 | 80 | 92 | 94 | 95 | 98 | 100 | 100 | 100 | 100 | 100 | 100 | Activity [20]: 100%; Activity [21]: 100%; Activity [22]: 100%; Activity [23]: 100%; Activity [24]: 100%; Activity [25]: 100%
